Consider 14 molecules from ChEMBL document CHEMBL4219137, “A novel templates of piperazinyl-1,2-dihydroquinoline-3-carboxylates: Synthesis, anti-microbial evaluation and molecular docking studies” (Bioorg Med Chem Lett, 2018).

What is called MIC is the lowest concentration that inhibits growth of the organism. A higher MIC goes with a less susceptible organism. In general, MFC refers to the smallest concentration meeting the test's criterion for killing the fungus. In general, Ki refers to the dissociation constant of the complex between target and ligand, obtained from inhibition or displacement. A high value points to lower affinity.

In brackets after ≈: the same amount, converted by molar mass.

Experiment [1] has as its system Candida albicans. The experiment can be described thus: Antifungal activity against Candida albicans MTCC 3017 after 24 hrs by agar well diffusion method. The settings on record: MTCC 3017, 24 h. In kind it is functional.
Experiment [2] has as its system Candida albicans. The experiment can be described thus: Fungicidal activity against Candida albicans MTCC 3017 incubated for 24 hrs followed by microbial sample growth Sabouraud dextrose agar plates. In kind it is functional. The settings on record: MTCC 3017, 24 h.
Experiment [3] has as its system Escherichia coli. The experiment can be described thus: Antibacterial activity against gram-negative Escherichia coli MTCC 739 after 24 hrs by agar well diffusion method. In kind it is functional. The settings on record: MTCC 739, 24 h. In general terms: In agar diffusion tests the substance spreads into inoculated agar from a disc or well.
The subject of experiment [4] is Escherichia coli. Briefly: Bactericidal activity against gram-negative Escherichia coli MTCC 739 incubated for 24 hrs followed by microbial sample growth at Mueller Hinton agar plates. In kind it is functional. The note with it: MTCC 739, 24 h.
For experiment [5], the system named is Bacillus subtilis. Briefly: Antibacterial activity against gram-positive Bacillus subtilis MTCC 121 after 24 hrs by agar well diffusion method. The experiment is classed as functional. The settings on record: MTCC 121, 24 h.
Experiment [6] deals with Bacillus subtilis. The experiment can be described thus: Bactericidal activity against gram-positive Bacillus subtilis MTCC 121 incubated for 24 hrs followed by microbial sample growth at Mueller Hinton agar plates. In kind it is functional. The note with it: MTCC 121, 24 h.
The subject of experiment [7] is Staphylococcus aureus. Briefly: Bactericidal activity against gram-positive Staphylococcus aureus MLS-16 MTCC 2940 incubated for 24 hrs followed by microbial sample growth at Mueller Hinton agar plates. The experiment is classed as functional. The settings on record: MLS-16 MTCC 2940, 24 h.
The subject of experiment [8] is Staphylococcus aureus. The experiment can be described thus: Antibacterial activity against gram-positive Staphylococcus aureus MTCC 96 after 24 hrs by agar well diffusion method. In kind it is functional. The settings on record: MTCC 96, 24 h.
Experiment [9] relates to Staphylococcus aureus. The experiment can be described thus: Bactericidal activity against gram-positive Staphylococcus aureus MTCC 96 incubated for 24 hrs followed by microbial sample growth at Mueller Hinton agar plates. The experiment is classed as functional. The note with it: MTCC 96, 24 h.
In experiment [10] the test system is Micrococcus luteus. The experiment can be described thus: Antibacterial activity against gram-positive Micrococcus luteus MTCC 2470 after 24 hrs by agar well diffusion method. The experiment is classed as functional. The settings on record: MTCC 2470, 24 h.
In experiment [11] the test system is Micrococcus luteus. The experiment can be described thus: Bactericidal activity against gram-positive Micrococcus luteus MTCC 2470 incubated for 24 hrs followed by microbial sample growth at Mueller Hinton agar plates. The experiment is classed as functional. The note with it: MTCC 2470, 24 h.
Experiment [12] has as its target T1, 4,4'-diapophytoene synthase (Staphylococcus aureus, UniProt A9JQL9).
T1 sequence (A9JQL9 whole entry): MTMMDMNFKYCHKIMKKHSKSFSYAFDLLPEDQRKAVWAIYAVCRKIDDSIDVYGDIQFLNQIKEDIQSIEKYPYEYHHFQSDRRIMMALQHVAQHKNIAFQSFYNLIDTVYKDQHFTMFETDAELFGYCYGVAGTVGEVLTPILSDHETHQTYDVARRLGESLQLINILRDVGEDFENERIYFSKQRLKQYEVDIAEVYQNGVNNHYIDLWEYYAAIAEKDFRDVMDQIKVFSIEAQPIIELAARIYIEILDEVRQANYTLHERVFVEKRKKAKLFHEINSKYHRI
Briefly: Inhibition of Staphylococcus aureus dehydrosqualene synthase.

Experiment [13] deals with Staphylococcus aureus. Briefly: Antibacterial activity against gram-positive Staphylococcus aureus MLS-16 MTCC 2940 after 24 hrs by agar well diffusion method. The experiment is classed as functional. The settings on record: MLS-16 MTCC 2940, 24 h.
The test system of experiment [14] is Raoultella planticola. The experiment can be described thus: Bactericidal activity against gram-negative Klebsiella planticola MTCC 530 incubated for 24 hrs followed by microbial sample growth at Mueller Hinton agar plates. In kind it is functional. The settings on record: MTCC 530, 24 h.
For experiment [15], the system named is Raoultella planticola. Briefly: Antibacterial activity against gram-negative Klebsiella planticola MTCC 530 after 24 hrs by agar well diffusion method. The experiment is classed as functional. The settings on record: MTCC 530, 24 h.
The subject of another experiment is Pseudomonas aeruginosa. The experiment can be described thus: microbe, parasite or virus in culture. The settings on record: MTCC 2453, 24 h.

Description for Pseudomonas aeruginosa: Bactericidal activity against gram-negative Pseudomonas aeruginosa MTCC 2453 incubated for 24 hrs followed by microbial sample growth at Mueller Hinton agar plates

For `CCOC(=O)c1c(N2CCN(c3ccccc3C(F)(F)F)CC2)c2ccccc2n(CC)c1=O`, the MIC in the experiment on Candida albicans [1], against Escherichia coli [3] and against Bacillus subtilis [5] was 7.8 µg/mL (≈ 16.5 µM) in each case. Also, in the experiment with Candida albicans [2], the MFC turned out to be 15.6 µg/mL (≈ 32.9 µM). For the same molecule, the MBC in the experiment on Escherichia coli [4] and with Bacillus subtilis [6] was 15.6 µg/mL (≈ 32.9 µM) throughout.
Take `CCOC(=O)c1c(N2CCN(c3ccccc3F)CC2)c2ccccc2n(C)c1=O`: the MIC was determined as 3.9 µg/mL (≈ 9.52 µM) in the experiment with Candida albicans [1]; 3.9 µg/mL (≈ 9.52 µM) against Escherichia coli [3]; 3.9 µg/mL (≈ 9.52 µM) in the experiment with Staphylococcus aureus [8]; 3.9 µg/mL (≈ 9.52 µM) against Micrococcus luteus [10]; 7.8 µg/mL (≈ 19 µM) with Staphylococcus aureus [13]; 3.9 µg/mL (≈ 9.52 µM) against Bacillus subtilis [5]. Also, the MBC in the experiment on Staphylococcus aureus [7] was found to be 15.6 µg/mL (≈ 38.1 µM); in the experiment with Staphylococcus aureus [9] it was 7.8 µg/mL (≈ 19 µM); in the experiment with Escherichia coli [4], 7.8 µg/mL (≈ 19 µM); in the experiment with Micrococcus luteus [11], 7.8 µg/mL (≈ 19 µM); against Bacillus subtilis [6], 7.8 µg/mL (≈ 19 µM). The same molecule yielded an MFC against Candida albicans [2] of 7.8 µg/mL (≈ 19 µM). The molecule further gave a Ki in experiment [12] of 7.87 µM.
As for `CCOC(=O)c1c(N2CCN(c3ccccc3F)CC2)c2ccccc2n(CC)c1=O`, the MBC against Raoultella planticola [14] and with Staphylococcus aureus [9] was 7.8 µg/mL (≈ 18.4 µM) each time. Besides, the MIC with Staphylococcus aureus [8] is 3.9 µg/mL (≈ 9.21 µM); in the experiment with Raoultella planticola [15], 7.8 µg/mL (≈ 18.4 µM). In addition, the Ki in [12] came out at 8.33 µM.
`CCOC(=O)c1c(N2CCN(C(=O)OC(C)(C)C)CC2)c2ccccc2n(C)c1=O` had an MIC in the experiment with Staphylococcus aureus [8] of 3.9 µg/mL (≈ 9.39 µM). This molecule also had an MBC against Staphylococcus aureus [9] of 7.8 µg/mL (≈ 18.8 µM). In experiment [12], affinity was put at a Ki of 5.19 µM.
With `CCOC(=O)c1c(N2CCN(c3cccc(OC)c3)CC2)c2ccccc2n(CC)c1=O`, the values for the MIC against Staphylococcus aureus [8] and in the experiment on Micrococcus luteus [10] were 3.9 µg/mL (≈ 8.95 µM) and 7.8 µg/mL (≈ 17.9 µM), respectively. Besides, the MBC is 7.8 µg/mL (≈ 17.9 µM) with Staphylococcus aureus [9] and 15.6 µg/mL (≈ 35.8 µM) against Micrococcus luteus [11]. For the same molecule, affinity in [12] was put at a Ki of 15.7 µM.
For the molecule `CCOC(=O)c1c(N2CCN(c3ccc(F)cc3)CC2)c2ccccc2n(C)c1=O`, the minimum inhibitory concentration (MIC) is 7.8 µg/mL (≈ 19 µM) against Candida albicans [1] and 3.9 µg/mL (≈ 9.52 µM) in the experiment with Staphylococcus aureus [8]. Besides, the MFC against Candida albicans [2] is 15.6 µg/mL (≈ 38.1 µM). The molecule also returned an MBC in the experiment on Staphylococcus aureus [9] of 7.8 µg/mL (≈ 19 µM). This molecule yielded a Ki in [12] of 1.26 µM.
Molecule `CCOC(=O)c1c(N2CCN(c3ccccc3OC)CC2)c2ccccc2n(CC)c1=O` returned an MIC in the experiment on Staphylococcus aureus [8] of 3.9 µg/mL (≈ 8.95 µM). For the same molecule, the MBC in the experiment on Staphylococcus aureus [9] was 7.8 µg/mL (≈ 17.9 µM). Further, in experiment [12], the affinity corresponds to a Ki of 14 µM.
For the molecule `CCOC(=O)c1c(N2CCCC2)c2ccccc2n(CC)c1=O`, in the experiment on Micrococcus luteus [10], the lowest concentration to inhibit growth (MIC) was 7.8 µg/mL (≈ 24.8 µM). The molecule further yielded an MBC in the experiment on Micrococcus luteus [11] of 15.6 µg/mL (≈ 49.6 µM).
Molecule `CCOC(=O)c1c(N2CCN(c3ccccc3C(F)(F)F)CC2)c2ccccc2n(C)c1=O` returned an MIC in the experiment on Candida albicans [1] of 7.8 µg/mL (≈ 17 µM). In the experiment on Candida albicans [2], the minimum fungicidal concentration (MFC) came to 15.6 µg/mL (≈ 34 µM).
In the experiment with Staphylococcus aureus [8], `CCOC(=O)c1c(N2CCN(C(=O)OC(C)(C)C)CC2)c2ccccc2n(CC)c1=O` displayed an MIC of 3.9 µg/mL (≈ 9.08 µM). The MBC against Staphylococcus aureus [9] came to 7.8 µg/mL (≈ 18.2 µM). For the same molecule, in experiment [12], affinity was put at a Ki of 20.2 µM.
Consider `CCOC(=O)c1c(N2CCN(c3ccc(F)cc3)CC2)c2ccccc2n(CC)c1=O`, for which the MIC in the experiment with Candida albicans [1], against Escherichia coli [3], against Staphylococcus aureus [8], in the experiment with Raoultella planticola [15], in the experiment with Micrococcus luteus [10] and with Staphylococcus aureus [13] was 3.9 µg/mL (≈ 9.21 µM) in each case. For the same molecule, the MIC in the experiment on Bacillus subtilis [5] came out at 3.9 µg/mL (≈ 9.21 µM). The MBC with Staphylococcus aureus [7], against Raoultella planticola [14], in the experiment on Staphylococcus aureus [9], in the experiment on Escherichia coli [4], against Micrococcus luteus [11] and in the experiment with Bacillus subtilis [6] was 7.8 µg/mL (≈ 18.4 µM) each time. In the experiment on Candida albicans [2], this molecule displayed an MFC of 7.8 µg/mL (≈ 18.4 µM). This molecule returned an inhibition constant Ki in experiment [12] of 6.89 µM.
In turn, `CCOC(=O)c1c(N2CCN(c3ccccc3OC)CC2)c2ccccc2n(C)c1=O` gave an MIC in the experiment on Staphylococcus aureus [8] of 3.9 µg/mL (≈ 9.25 µM). The MBC in the experiment with Staphylococcus aureus [9] amounted to 7.8 µg/mL (≈ 18.5 µM). The inhibition constant Ki in [12] is 19.8 µM.
Turning to `O=C(O)c1cn(C2CC2)c2cc(N3CCNCC3)c(F)cc2c1=O` [CIPROFLOXACIN], the MBC in the experiment with Staphylococcus aureus [7], in the experiment on Raoultella planticola [14], against Pseudomonas aeruginosa, against Staphylococcus aureus [9], with Escherichia coli [4] and against Micrococcus luteus [11] was 0.9 µg/mL (≈ 2.72 µM) throughout. The molecule also had an MBC against Bacillus subtilis [6] of 0.9 µg/mL (≈ 2.72 µM). The MIC in the experiment on Escherichia coli [3], with Staphylococcus aureus [8], with Raoultella planticola [15], in the experiment on Micrococcus luteus [10], against Staphylococcus aureus [13] and in the experiment on Bacillus subtilis [5] was 0.9 µg/mL (≈ 2.72 µM) in each case.
Take `Clc1ccc(COC(Cn2ccnc2)c2ccc(Cl)cc2Cl)c(Cl)c1` (stereo not given) [MICONAZOLE]: the MIC in the experiment with Candida albicans [1] is 7.8 µg/mL (≈ 18.7 µM). The molecule further displayed a minimal fungicidal concentration (MFC) against Candida albicans [2] of 7.8 µg/mL (≈ 18.7 µM).
